Legend:
[1] = test system: genotype 1b-Con1 subgenomic replicon cell line; experiment: HCV Polymerase Replicon Assay (genotype 1b-Con1); format: cell-based; conditions: Hepatitis C virus, 72 h; 1b-Con1 replicon, luciferase reporter, 5% FBS, three days
[2] = target: T1, HCV polymerase 1B (Δ21 NS5B, BK) (Hepatitis C virus genotype 1b, UniProt P26663); experiment: HCV Polymerase Inhibition Assay (1b); format: biochemical
T1 construct: 20 to 50 nM Δ21 NS5B
Description: (§1) The reaction was initiated by the addition of 20 μM CTP, 20 μM ATP, 1 μM ^3H-UTP (10 mCi/μmol), 5 nM template RNA and 0.1 U/μL RNase inhibitor (RNasin, Promega), and allowed to proceed for 2 to 4 hours at room temperature. Reaction volume was 50 μL. The reaction was terminated by the addition of 1 volume of 4 mM spermine in 10 mM Tris-Cl pH 8.0, 1 mM EDTA. After incubation for at least 15 minutes at room temperature, the precipitated RNA was captured by filtering through a GF/B filter (Millipore) in a 96 well format. The filter plate was washed three times with 200 μL each of 2 mM spermine, 10 mM Tris-Cl pH 8.0, 1 mM EDTA, and 2 times with ethanol. After air-drying, 30 μL of Microscint 20 scintillation cocktail (Packard) was added to each well, and the retained cpm were determined by scintillation counting. […] Retained cpm were plotted vs. inhibitor concentration and fit to equation 1 using non-linear regression (ref. 1) to obtain the IC50 values: Retained cpm=A[sqrt{(IC50+It−Et)^2+4*IC50*Et}−(IC50+It−Et)] (equation 1) where A=Vmax[S]/2(Km+[S]); It=total inhibitor concentration and Et=total active concentration of enzyme.
(§2) Ref. Morrison, J. F. and S. R. Stone. 1985. Approaches to the study and analysis of the inhibition of enzymes by slow- and tight-binding inhibitors. Comments Mol. Cell. Biophys. 2: 347-368.
(§3) The sequence of the template RNA used was: 5′-[…] […] […] […] […] […] […] […] […] […] […] […] […] […] […] […] […]-3′ (SEQ ID NO: 1).

[3] = target: T2, HCV polymerase 1A (Δ21 NS5B, H77) (Hepatitis C virus genotype 1a, UniProt P27958); experiment: HCV Polymerase Inhibition Assay (1a); format: biochemical
T2 construct: 20 to 50 nM Δ21 NS5B
Description: as §1, §2, §3

[4] = test system: genotype 1a-H77 subgenomic replicon cell line; experiment: HCV Polymerase Replicon Assay (genotype 1a-H77); format: cell-based; conditions: Hepatitis C virus, 72 h; 1a-H77 replicon, luciferase reporter, 5% FBS, three days

T1 sequence (P26663 2420-2989, stated change not applied): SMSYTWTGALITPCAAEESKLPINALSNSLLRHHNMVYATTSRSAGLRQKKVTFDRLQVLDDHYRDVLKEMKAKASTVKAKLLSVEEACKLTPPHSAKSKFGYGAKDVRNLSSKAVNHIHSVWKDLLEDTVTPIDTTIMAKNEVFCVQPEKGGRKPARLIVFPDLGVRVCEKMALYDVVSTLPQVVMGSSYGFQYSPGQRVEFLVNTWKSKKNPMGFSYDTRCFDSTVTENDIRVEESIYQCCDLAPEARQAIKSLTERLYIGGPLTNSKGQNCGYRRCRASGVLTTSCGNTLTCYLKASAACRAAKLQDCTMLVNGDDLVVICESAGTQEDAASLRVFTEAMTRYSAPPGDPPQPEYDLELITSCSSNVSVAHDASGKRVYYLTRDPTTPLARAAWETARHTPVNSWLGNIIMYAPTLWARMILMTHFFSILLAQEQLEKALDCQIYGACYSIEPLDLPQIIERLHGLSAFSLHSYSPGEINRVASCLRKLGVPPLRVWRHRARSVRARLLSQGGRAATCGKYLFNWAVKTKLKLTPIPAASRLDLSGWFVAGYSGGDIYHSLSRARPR
T2 sequence (P27958 2421-2990, stated change not applied): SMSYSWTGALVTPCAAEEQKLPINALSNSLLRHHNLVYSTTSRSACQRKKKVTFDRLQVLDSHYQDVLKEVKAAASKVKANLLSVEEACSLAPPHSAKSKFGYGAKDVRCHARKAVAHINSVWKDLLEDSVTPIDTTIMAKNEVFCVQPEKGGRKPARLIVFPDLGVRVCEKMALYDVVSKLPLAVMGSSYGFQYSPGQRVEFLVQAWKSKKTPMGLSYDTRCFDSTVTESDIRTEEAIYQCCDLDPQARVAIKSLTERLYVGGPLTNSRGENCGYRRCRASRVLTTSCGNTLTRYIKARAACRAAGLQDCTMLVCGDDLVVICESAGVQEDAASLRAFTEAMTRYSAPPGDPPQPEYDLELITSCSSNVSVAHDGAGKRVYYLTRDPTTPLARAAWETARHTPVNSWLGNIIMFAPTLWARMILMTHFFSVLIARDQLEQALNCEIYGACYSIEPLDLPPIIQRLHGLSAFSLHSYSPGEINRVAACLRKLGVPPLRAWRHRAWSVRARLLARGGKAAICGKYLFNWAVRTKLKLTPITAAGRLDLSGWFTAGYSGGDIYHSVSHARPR

| SMILES | EC50 [1] [nM] | IC50 [2] [nM] | IC50 [3] [nM] | EC50 [4] [nM] |
| --- | --- | --- | --- | --- |
| CC(C)(C)c1cc(N2CCC(=O)NC2=O)cc2c(Nc3ccc(NS(C)(=O)=O)cc3)ncnc12 [Compound 6, N-(4-(8-tert-butyl-6-(2,4-dioxotetrahydropyrimidin-1(2H)-yl)quinazolin-4-ylamino)phenyl)methanesulfonamide] | 100 to 1000 | 10 to 100 | 10 to 100 | 100 to 1000 |
| COc1c(C(C)(C)C)cc(-n2ccc(=O)[nH]c2=O)c2ccc(-c3ccc(NS(C)(=O)=O)cc3)nc12 [Compound 2, N-(4-(7-tert-butyl-5-(2,4-dioxo-3,4-dihydropyrimidin-1(2H)-yl)-8-methoxyquinolin-2-yl)phenyl)methanesulfonamide] |  | > 1000 | > 1000 |  |
| CC(C)(C)c1cc(-n2ccc(=O)[nH]c2=O)cc2c(Nc3ccc(NS(C)(=O)=O)cc3)ncnc12 [Compound 5, N-(4-(8-tert-butyl-6-(2,4-dioxo-3,4-dihydropyrimidin-1(2H)-yl)quinazolin-4-ylamino)phenyl)methanesulfonamide] | 100 to 1000 | 10 to 100 | 10 to 100 | > 1000 |
| CC1(C)CC(=O)Oc2c1cc(N1CCC(=O)NC1=O)c1ccccc21 [Compound 4, 1-(4,4-dimethyl-2-oxo-3,4-dihydro-2H-benzo[h]chromen-6-yl)dihydropyrimidine-2,4(1H,3H)-dione] |  | 100 to 1000 | > 1000 |  |
| CC(C)(C)c1cc(-n2ccc(=O)[nH]c2=O)cc2c(Nc3cc(CNS(C)(=O)=O)cs3)ncnc12 [Compound 7, N-((5-(8-tert-butyl-6-(2,4-dioxo-3,4-dihydropyrimidin-1(2H)-yl)quinazolin-4-ylamino)thiophen-3-yl)methyl)methanesulfonamide] | 100 to 1000 | < 10 | 10 to 100 | > 1000 |
| COc1c(C(C)(C)C)cc(-n2ccc(=O)[nH]c2=O)c2cccnc12 [Compound 1, 1-(7-tert-butyl-8-methoxyquinolin-5-yl)pyrimidine-2,4(1H,3H)-dione] | ≤ 10 | 10 to 100 | 10 to 100 | 100 to 1000 |
| CC1(C)COc2c(-c3ccc4cc(NS(C)(=O)=O)ccc4c3)cc(-n3ccc(=O)[nH]c3=O)cc21 [Compound 3, N-(6-(5-(2,4-dioxo-3,4-dihydropyrimidin-1(2H)-yl)-3,3-dimethyl-2,3-dihydrobenzofuran-7-yl)naphthalen-2-yl)methanesulfonamide] | 10 to 100 | 10 to 100 | < 10 | 100 to 1000 |
